Assays:
Assay type in all cases: cell-based
[1] = target: T1, GAL4-PPARα (Homo sapiens, UniProt Q07869); assay: Cellular PPAR transactivation assay, GAL4-PPARα chimera in CHO-K1 cells; details: for Emax: CHO-K1, maximum effect relative to reference compound (Example 73 of EP 1 452 521-A1 = 100%), read-out: PPARα efficacy; for EC50: CHO-K1 cells, luciferase reporter, 6 h stimulation
T1 construct: expressed in transfected cells
T1 sequence (Q07869 167-468): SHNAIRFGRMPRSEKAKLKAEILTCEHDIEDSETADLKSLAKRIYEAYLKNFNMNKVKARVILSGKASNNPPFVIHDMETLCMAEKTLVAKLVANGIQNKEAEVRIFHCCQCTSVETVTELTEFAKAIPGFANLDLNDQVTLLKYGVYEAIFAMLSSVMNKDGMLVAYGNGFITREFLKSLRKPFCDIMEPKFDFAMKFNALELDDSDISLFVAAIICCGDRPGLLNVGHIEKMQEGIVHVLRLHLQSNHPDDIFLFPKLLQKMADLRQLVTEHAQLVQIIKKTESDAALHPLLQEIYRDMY
Description: (§1) A cellular assay is used to test for potentially activating properties of the compounds according to the invention with respect to the three human isoforms of the peroxisome proliferator-activated receptors (PPARα, PPARγ and PPARδ).
(§2) Since mammalian cells contain different endogenous nuclear receptors which may complicate an unambiguous interpretation of the results, an established chimera system is used in which the respective ligand binding domain of the human PPAR isoforms is fused to the DNA binding domain of the yeast transcription factor GAL4. The resulting GAL4-PPARα, γ and δ chimeras are co-transfected and stably expressed in CHO cells having a reporter construct.
(§3) The GAL4-PPAR expression constructs contain the ligand binding domain of PPARα (amino acids 167-468), PPARγ (amino acids 203-506) and PPARδ (amino acids 138-442) which are PCR-amplified and cloned into the vector pcDNA3.1. The respective expression vectors already contain the GAL4 DNA binding domain (amino acids 1-147) of the vector pFC2-dbd (Stratagene). The reporter construct, which contains five copies of the GAL4 binding site upstream of a thymidine kinase promoter, expresses firefly luciferase (Photinus pyralis) following activation and binding of GAL4-PPARα, γ or δ.
(§4) The day before the test, CHO-K1 cells (chinese hamster ovary; ATCC CCL-61) each stably expressing one of the above-described GAL4-PPAR chimeras and the luciferase reporter gene construct are sown in medium [Optimem (GIBCO) with 2% activated carbon-purified foetal calf serum (Hyclone), 1.35 mM sodium pyruvate (GIBCO) and 0.2% sodium bicarbonate (GIBCO)] in a density of 1×10^3 cells in 96-well microtitre plates (Greiner) and kept in a cell incubator (96% atmospheric humidity, 5% v/v CO2, 37° C.). On the test day, the substances to be tested are taken up in the medium mentioned above, but without addition of calf serum, and added in various concentrations to the cells. After a stimulation period of 6 h, the luciferase activity is measured using a video camera. The relative light units measured give, as a function of the substance concentration, a sigmoidal stimulation curve. The EC50 values are calculated using the computer programme GraphPad PRISM (Version 3.02). The maximum effect of a test substance in the respective PPAR assay is determined as efficacy in percent in comparison to an appropriate reference compound whose maximum effect is defined as 100%.
(§5) The reference compound selected here was the compound 2-(3-{[(2-chloro-4-propoxybenzoyl)-amino]methyl}-4-ethoxybenzyl)tetrahydrofuran-2-carboxylic acid [Example 73 of EP 1 452 521-A1] which is described in the prior art as a potent pan-PPAR agonist.

[2] = target: T2, GAL4-PPARγ (Homo sapiens, UniProt P37231); assay: Cellular PPAR transactivation assay, GAL4-PPARγ chimera in CHO-K1 cells; details: for Emax: CHO-K1, maximum effect relative to reference compound (Example 73 of EP 1 452 521-A1 = 100%), read-out: PPARγ efficacy; for EC50: CHO-K1 cells, luciferase reporter, 6 h stimulation
T2 construct: PPARγ (amino acids 203-506); expressed in transfected cells
T2 sequence (P37231 203-505 limits assumed): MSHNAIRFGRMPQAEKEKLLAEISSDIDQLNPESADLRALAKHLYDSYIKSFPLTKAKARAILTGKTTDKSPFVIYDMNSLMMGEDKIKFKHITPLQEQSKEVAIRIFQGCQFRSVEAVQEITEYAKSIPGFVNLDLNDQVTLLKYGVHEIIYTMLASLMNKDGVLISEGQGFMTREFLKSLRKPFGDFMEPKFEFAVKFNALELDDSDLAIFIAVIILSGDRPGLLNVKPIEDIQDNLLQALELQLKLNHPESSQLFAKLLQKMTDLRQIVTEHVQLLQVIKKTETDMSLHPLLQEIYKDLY
Description: as §1, §2, §3, §4, §5

[3] = target: T3, GAL4-PPARδ (Homo sapiens, UniProt Q03181); assay: Cellular PPAR transactivation assay, GAL4-PPARδ chimera in CHO-K1 cells; details: for Emax: CHO-K1, maximum effect relative to reference compound (Example 73 of EP 1 452 521-A1 = 100%), read-out: PPARδ efficacy; for EC50: CHO-K1 cells, luciferase reporter, 6 h stimulation
T3 construct: PPARδ (amino acids 138-442); expressed in transfected cells
T3 sequence (Q03181 138-441 limits assumed): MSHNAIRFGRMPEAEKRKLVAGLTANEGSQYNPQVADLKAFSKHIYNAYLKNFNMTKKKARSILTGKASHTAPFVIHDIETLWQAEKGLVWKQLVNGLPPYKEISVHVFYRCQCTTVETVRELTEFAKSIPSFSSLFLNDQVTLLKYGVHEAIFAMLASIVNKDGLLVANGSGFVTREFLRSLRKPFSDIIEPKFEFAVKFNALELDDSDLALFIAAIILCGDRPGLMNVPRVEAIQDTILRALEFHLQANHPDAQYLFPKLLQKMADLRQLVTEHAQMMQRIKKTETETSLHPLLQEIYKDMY
Description: as §1, §2, §3, §4, §5

[4] = target: T4, sGC (Rattus norvegicus, UniProt P20595); assay: Action at a recombinant guanylate cyclase reporter cell line (CHO reporter cell); details: CHO reporter cell in vitro
T4 construct: expressed in transfected cells; host or cells: CHO reporter cell
Protocol: The cellular action of the compounds according to the invention is determined at a recombinant guanylate cyclase reporter cell line, as described in F. Wunder et al., Anal. Biochem. 339, 104-112 (2005).

T4 sequence (P19686 whole entry partner): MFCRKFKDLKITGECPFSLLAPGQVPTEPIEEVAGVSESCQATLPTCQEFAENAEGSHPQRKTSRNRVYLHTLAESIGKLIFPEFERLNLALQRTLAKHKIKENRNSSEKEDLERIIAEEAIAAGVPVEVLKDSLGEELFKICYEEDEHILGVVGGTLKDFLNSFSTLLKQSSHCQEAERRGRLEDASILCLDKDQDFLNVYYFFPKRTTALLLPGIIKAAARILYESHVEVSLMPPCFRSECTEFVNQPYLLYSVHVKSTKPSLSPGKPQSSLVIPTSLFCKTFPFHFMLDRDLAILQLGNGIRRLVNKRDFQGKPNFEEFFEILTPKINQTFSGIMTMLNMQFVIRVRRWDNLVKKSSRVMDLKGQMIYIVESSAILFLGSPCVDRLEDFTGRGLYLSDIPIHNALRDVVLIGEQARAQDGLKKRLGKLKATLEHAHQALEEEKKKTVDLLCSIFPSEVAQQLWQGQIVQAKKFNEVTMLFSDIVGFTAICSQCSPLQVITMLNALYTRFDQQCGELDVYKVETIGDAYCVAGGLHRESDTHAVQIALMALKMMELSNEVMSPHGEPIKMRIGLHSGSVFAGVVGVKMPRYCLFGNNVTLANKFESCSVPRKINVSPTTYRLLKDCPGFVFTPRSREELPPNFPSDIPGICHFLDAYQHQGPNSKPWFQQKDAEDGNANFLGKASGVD
T4 sequence (P20595 whole entry): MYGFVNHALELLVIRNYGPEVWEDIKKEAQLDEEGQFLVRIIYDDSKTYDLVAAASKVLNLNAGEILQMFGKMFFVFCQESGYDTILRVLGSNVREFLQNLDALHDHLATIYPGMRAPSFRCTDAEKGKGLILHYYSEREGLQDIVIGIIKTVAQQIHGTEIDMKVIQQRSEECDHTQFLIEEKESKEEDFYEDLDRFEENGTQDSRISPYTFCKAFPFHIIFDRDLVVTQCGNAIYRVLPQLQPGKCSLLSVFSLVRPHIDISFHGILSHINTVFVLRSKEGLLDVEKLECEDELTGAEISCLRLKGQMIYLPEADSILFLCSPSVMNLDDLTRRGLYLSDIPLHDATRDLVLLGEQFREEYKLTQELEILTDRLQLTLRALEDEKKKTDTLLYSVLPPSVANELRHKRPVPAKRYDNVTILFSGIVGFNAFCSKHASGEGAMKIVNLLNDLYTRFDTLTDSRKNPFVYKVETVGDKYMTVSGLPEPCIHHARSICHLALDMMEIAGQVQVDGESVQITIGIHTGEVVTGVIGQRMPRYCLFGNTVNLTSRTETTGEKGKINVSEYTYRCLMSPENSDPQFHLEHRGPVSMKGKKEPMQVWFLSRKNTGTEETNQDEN

Row | Emax [1] | EC50 [1] | Effect in the cellular PPAR transactivation test (in words) ([1]; statement covers the PPARα, PPARγ and PPARδ test) | Emax [2] | EC50 [2] | Emax [3] | EC50 [3] | MEC (minimum effective concentration), sGC-activating activity in the CHO reporter cell [4] | Compound
1 | 0% | > 10 µM | – | 0% | > 10 µM | 0% | > 10 µM | 0.3 nM | C[C@H]([C@H](C(=O)Nc1cc(CC2(C(=O)O)CC2)ccc1Cl)c1ccc(C(C)(C)C(F)(F)F)cc1)C(F)(F)F [Example 44, 1-[4-chloro-3-({(2S,3R)-4,4,4-trifluoro-3-methyl-2-[4-(1,1,1-trifluoro-2-methylpropan-2-yl)phenyl]-butanoyl}amino)benzyl]cyclopropanecarboxylic acid]
2 | 0% | > 10 µM | – | 20% | 0.46 µM | 0% | > 10 µM | 3 nM | C[C@H]([C@H](C(=O)Nc1cc(CC2(C(=O)O)CC2(F)F)ccc1Cl)c1ccc(Cl)cc1)C(F)(F)F (single isomer, unassigned; (+)) [Example 71]
3 | 100% | 0.0053 µM | – | 100% | 0.0089 µM | 100% | 0.0084 µM | – | CCCOc1ccc(C(=O)NCc2cc(CC3(C(=O)O)CCCO3)ccc2OCC)c(Cl)c1 (stereo not shown) [Example 73 of EP 1 452 521-A1, 2-(3-{[(2-chloro-4-propoxybenzoyl)amino]-methyl}-4-ethoxybenzyl)tetrahydrofuran-2-carboxylic acid, reference compound]
4 | 0% | > 10 µM | – | 10% | 2 µM | 0% | > 10 µM | 3 nM | COc1cc([C@@H](C(=O)Nc2cc(CC3(C(=O)O)CC3)ccc2F)[C@@H](C)C(F)(F)F)ccc1Cl [Example 42, 1-(3-{[(2S,3R)-2-(4-chloro-3-methoxyphenyl)-4,4,4-trifluoro-3-methylbutanoyl]amino}-4-fluorobenzyl)cyclopropanecarboxylic acid]
5 | – | – | – | – | – | – | – | 0.3 nM | C=Cc1ccc([C@@H](C(=O)Nc2cc(CC3(C(=O)O)CC3)ccc2F)[C@@H](C)C(F)(F)F)cc1 [Example 63, (+)-1-(4-Fluoro-3-{[(2S,3R)-4,4,4-trifluoro-3-methyl-2-(4-vinylphenyl)butanoyl]amino}benzyl)-cyclopropanecarboxylic acid]
6 | – | – | – | – | – | – | – | 20 nM | CC(C(C(=O)Nc1cccc(CC2(C(=O)O)CC2)c1)c1ccc(Cl)cc1)C(F)(F)F (single isomer, unassigned) [Example 84, 1-(3-{[2-(4-Chlorophenyl)-4,4,4-trifluoro-3-methylbutanoyl]amino}benzyl)cyclopropane-carboxylic acid]
7 | – | – | – | – | – | – | – | 3 nM | O=C(Nc1cc(CC2(C(=O)O)CC2)ccc1F)C(c1ccc(Cl)cc1)C1CCC(F)(F)C1 (single isomer, unassigned) [Example 78, 1-(3-{[(4-Chlorophenyl)(3,3-difluorocyclopentyl)acetyl]amino}-4-fluorobenzyl)cyclopropanecarboxylic acid]

Further lines, the molecule ahead of its results:

Row | Compound | Emax [1] | EC50 [1] | Effect in the cellular PPAR transactivation test (in words) ([1]; statement covers the PPARα, PPARγ and PPARδ test) | Emax [2] | EC50 [2] | Emax [3] | EC50 [3] | MEC (minimum effective concentration), sGC-activating activity in the CHO reporter cell [4]
8 | COc1ccc(CC2(C(=O)O)CC2)cc1CNC(=O)c1ccc(Cl)cc1Cl [Example 11 of EP 1 452 521-A1, 1-(3-{[(2,4-dichlorobenzoyl)amino]methyl}-4-methoxybenzyl)cyclopropanecarboxylic acid, reference compound] | 0% | > 1 µM | virtually ineffective | 0% | > 1 µM | 10% | > 1 µM | –
9 | C[C@H]([C@H](C(=O)Nc1cc(CC2(C(=O)O)CC2)ccc1F)c1ccc(C(C)(F)F)cc1)C(F)(F)F [Example 38, 1-[3-({(2S,3R)-2-[4-(1,1-difluoroethyl)phenyl]-4,4,4-trifluoro-3-methylbutanoyl}amino)-4-fluorobenzyl]cyclopropanecarboxylic acid] | 0% | > 10 µM | – | 0% | > 10 µM | 0% | > 10 µM | 0.3 nM
10 | Cc1ccc(CC2(C(=O)O)CC2)cc1NC(=O)[C@H](c1ccc(Cl)cc1)[C@@H](C)C(F)(F)F [Example 33, 1-(3-{[(2S,3R)-2-(4-chlorophenyl)-4,4,4-trifluoro-3-methylbutanoyl]amino}-4-methylbenzyl)-cyclopropanecarboxylic acid] | 0% | > 10 µM | – | 10% | 4 µM | 0% | > 10 µM | 3 nM
11 | C[C@H]([C@H](C(=O)Nc1cc(CC2(C(=O)O)CC2)ccc1F)c1ccc(C2CC2)cc1)C(F)(F)F [Example 40, 1-(3-{[(2S,3R)-2-(4-cyclopropylphenyl)-4,4,4-trifluoro-3-methylbutanoyl]amino}-4-fluorobenzyl)cyclopropanecarboxylic acid] | 0% | > 10 µM | – | 10% | 0.12 µM | 0% | > 10 µM | 0.3 nM
12 | C[C@H]([C@H](C(=O)Nc1cc(CC2(C(=O)O)CC2)ccc1Cl)c1ccc(C(F)(F)F)cc1)C(F)(F)F [Example 41, 1-[4-chloro-3-({(2S,3R)-4,4,4-trifluoro-3-methyl-2-[4-(trifluoromethyl)phenyl]butanoyl}amino)-benzyl]cyclopropanecarboxylic acid] | – | – | – | – | – | – | – | 1 nM
13 | C=Cc1ccc(C(C(=O)Nc2cccc(CC3(C(=O)O)CC3)c2)C2CCCC2)cc1 (racemic) [Example 13, (+/−)-1-(3-{[cyclopentyl(4-vinylphenyl)acetyl]-amino}benzyl)cyclopropanecarboxylic acid] | – | – | – | – | – | – | – | 30 nM
14 | C[C@H]([C@H](C(=O)Nc1ccc(Cl)c(CC2(C(=O)O)CC2)c1F)c1ccc(Cl)cc1)C(F)(F)F [Example 28, 1-(6-chloro-3-{[(2S,3R)-2-(4-chlorophenyl)-4,4,4-trifluoro-3-methylbutanoyl]amino}-2-fluorobenzyl)cyclopropanecarboxylic acid] | – | – | – | – | – | – | – | 3 nM
